Earlier results as cited in US8883844B2, “Nitric oxide releasing amino acid ester for treatment of pulmonary hypertension and other respiratory conditions” (Nitrogenix Inc., priority 2010, dated 2014).
Where two headings read alike, the source gives them in different places.

Assays:
[1] = oral; 3, 6, 9 and 12 months
[2] = open pilot study

CC#CCC(C)[C@H](O)/C=C/[C@@H]1[C@H]2c3cccc(CCCC(=O)O)c3O[C@H]2C[C@H]1O (mixture of isomers) [Beraprost, beraprost]
benefit in PAH [1]: benefit in a study in PAH at 3 and 6 months but not at 9 or 12 months

COc1ccccc1Oc1c(NS(=O)(=O)c2ccc(C(C)(C)C)cc2)nc(-c2ncccn2)nc1OCCO [bosentan]
liver toxicity (higher dose): liver toxicity occurred | six minute walk test (two placebo controlled trials, whole group, improvement greater at higher doses): improved

Cc1cc2c(cc1CC(=O)c1sccc1S(=O)(=O)Nc1onc(C)c1Cl)OCO2 [sitaxsentan]
decrease in pulmonary vascular resistance [2]: 30% | six minute walk test [2]: improvement
